Test results: US9597314B2, “Beta-lactamylalkanoic acids for treating premenstrual disorders” (AZEVAN PHARMACEUTICALS, INC., priority 2005, dated 2017)
pKi: −log10 of the molar value.

Target: V1a (Homo sapiens, UniProt P37288)
Assay: Human vasopression V1a receptor binding assay
Design: host or cells: CHO cells (hV1a cell line), whole adherent cells
Details: hV1a cell line (CHO); for IC50: 1 nM 3H-AVP, Table 17, read-out: V1a Binding Affinity (IC50 (nM)); for pKi: Table 18
Experimental: Human vasopression V1a receptor binding assay. A cell line expressing the human V1a receptor in CHO cells (henceforth referred to as the hV1a cell line) was obtained from Dr. Michael Brownstein, NIMH, Bethesda, Md., USA. The hV1a cDNA sequence is described by Thibonnier et al., Journal of Biological Chemistry, 269, 3304-3310 (1994), and the expression method was the same as described by Morel et al. (1992). The hV1a cell line was grown in alpha-MEM with 10% fetal bovine serum and 250 ug/ml G418 (Gibco, Grand Island, N.Y., USA). For competitive binding assay, hV1a cells were plated into 6-well culture plate at 1:10 dilution from a confluency flask, and maintained in culture for at least two days. Culture medium was then removed, cells were washed with 2 ml binding buffer (25 mM Hepes, 0.25% BSA, 1×DMEM, PH=7.0). To each well, 990 μl binding buffer containing 1 nM 3H-AVP was added, and followed by 10 μl series diluted Example compounds dissolved in DMSO. […] 100 nM cold AVP (Sigma) was used to assess non-specific binding. Cells were incubated for 45 minutes at 37° C., assay mixture was removed and each well was washed three times with PBS (pH=7.4). 1 ml 2% SDS was added per well and plates were let sit for 30 minutes. The whole content in a well was transferred to a scintillation vial. Each well was rinsed with 0.5 ml PBS which was then added to the corresponding vial. Scintillation fluid (Ecoscint, National Diagnostics, Atlanta, Ga.) was then added at 3 ml per vial. Samples were counted in a liquid scintillation counter (Beckman LS3801). IC50 values were calculated by Prism Curve fitting software.
All of the alkanedioic esters and amides exemplified in the foregoing examples dissolved in DMSO were tested in this assay. Binding curves were generated according to methods described by Thibonnier et al. (1994). [^3H]-AVP was added to the hV1a cell cultures followed by 10 fold dilutions of each test compound.

Chain of V1a (P37288 whole entry): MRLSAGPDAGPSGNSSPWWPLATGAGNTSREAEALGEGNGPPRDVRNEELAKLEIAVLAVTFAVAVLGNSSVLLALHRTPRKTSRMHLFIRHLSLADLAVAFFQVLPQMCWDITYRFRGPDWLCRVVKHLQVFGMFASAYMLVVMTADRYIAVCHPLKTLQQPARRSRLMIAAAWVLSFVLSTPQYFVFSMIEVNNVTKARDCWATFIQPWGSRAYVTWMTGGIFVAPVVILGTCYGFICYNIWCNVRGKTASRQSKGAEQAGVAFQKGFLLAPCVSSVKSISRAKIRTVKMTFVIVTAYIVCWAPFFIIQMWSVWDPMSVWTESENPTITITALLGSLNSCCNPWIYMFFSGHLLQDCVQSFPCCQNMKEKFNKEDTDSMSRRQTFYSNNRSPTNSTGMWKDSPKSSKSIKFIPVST

Row | SMILES | IC50 [nM] | pKi
1 | O=C(NCc1ccco1)[C@H](CCC(=O)N1CCN(C2CCCCC2)CC1)N1C(=O)[C@@H](N2C(=O)OC[C@@H]2c2ccccc2)[C@H]1/C=C/c1ccccc1 [Example 211] | 5.37 | 8.48
2 | O=C(CC[C@@H](C(=O)N[C@@H]1CCCc2ccccc21)N1C(=O)[C@@H](N2C(=O)OC[C@@H]2c2ccccc2)[C@H]1/C=C/c1ccccc1)NC1CN2CCC1CC2 (stereo partly shown) [Example 221AE] | ~50 | 
3 | O=C(NCc1cccc(C(F)(F)F)c1)[C@H](CCC(=O)N1CCN(Cc2ccc3c(c2)OCO3)CC1)N1C(=O)[C@@H](N2C(=O)OC[C@@H]2c2ccccc2)[C@H]1/C=C/c1ccccc1 [Example 96] |  | 8.58
4 | Cc1ccc(CNC(=O)[C@H](CCC(=O)N2CCN(C3CCCCC3)CC2)N2C(=O)[C@@H](N3C(=O)OC[C@@H]3c3ccccc3)[C@H]2/C=C/c2ccccc2)o1 [Example 212] | 0.95 | 9.24
5 | C[C@H](NC(=O)[C@H](CCC(=O)N1CCN(C2CCCCC2)CC1)N1C(=O)[C@@H](N2C(=O)OC[C@@H]2c2ccccc2)[C@H]1/C=C/c1ccccc1)c1ccccc1 [Example 206] | 1.58 | 9.01
6 | O=C(NCc1cccc(C(F)(F)F)c1)C(C(=O)N1CCC(CCN2CCCCC2)CC1)N1C(=O)[C@@H](N2C(=O)OC[C@@H]2c2ccccc2)[C@H]1/C=C/c1ccccc1 (mixture of isomers) [Example 42A] | 1.77 | 8.93
7 | CN(Cc1cccc(Br)c1)C(=O)[C@H](CCC(=O)N1CCN(C2CCCCC2)CC1)N1C(=O)[C@@H](N2C(=O)OC[C@@H]2c2ccccc2)[C@H]1/C=C/c1ccccc1 [Example 221D] | 2.41 | 8.83
8 | Cc1ccc(CNC(=O)[C@H](CCC(=O)N2CCN(C3CCCCC3)CC2)N2C(=O)[C@@H](N3C(=O)OC[C@@H]3c3ccccc3)[C@H]2/C=C/c2ccccc2)cc1 [Example 194] | < 100 | 
9 | CC(C)N1CCN(C(=O)CC[C@@H](C(=O)NCc2cccc(C(F)(F)F)c2)N2C(=O)[C@@H](N3C(=O)OC[C@@H]3c3ccccc3)[C@H]2/C(Cl)=C/c2ccccc2)CC1 [Example 230] | 7.07 | 8.36
10 | CC(C)(C)OC(=O)N[C@@H]1CCN(C2CCN(C(=O)CC[C@@H](C(=O)NC3(c4ccccc4)CCCC3)N3C(=O)[C@@H](N4C(=O)OC[C@@H]4c4ccccc4)[C@H]3/C=C/c3ccccc3)CC2)C1 [Example 221AX] | 83 | 7.29
11 | O=C(CC[C@@H](C(=O)N[C@@H]1CCCc2ccccc21)N1C(=O)[C@@H](N2C(=O)OC[C@@H]2c2ccccc2)[C@H]1/C=C/c1ccccc1)N[C@@H]1CCN(Cc2ccccc2)C1 [Example 221AD] | ~50 | 
12 | O=C(NCc1cccc(C(F)(F)F)c1)[C@H](CC(=O)N1CCC(CCN2CCCCC2)CC1)N1C(=O)[C@@H](N2C(=O)OC[C@@H]2c2ccccc2)[C@H]1/C=C/c1ccccc1 [Example 86A] | 9.79 | 8.22
13 | CC(NC(=O)[C@H](CCC(=O)N1CCN(C2CCCCC2)CC1)N1C(=O)[C@@H](N2C(=O)OC[C@@H]2c2ccccc2)[C@H]1/C=C/c1ccccc1)c1ccccc1 (stereo partly shown) [Example 195] | < 50 | 
14 | CC(C)(NC(=O)[C@H](CCC(=O)N1CCN(C2CCCCC2)CC1)N1C(=O)[C@@H](N2C(=O)OC[C@@H]2c2ccccc2)[C@H]1/C=C/c1ccccc1)c1ccccc1 [Example 204] | 6 | 8.43
15 | O=C(NC1(c2cccc(F)c2)CCCC1)[C@H](CCC(=O)N1CCN(C2CCCCC2)CC1)N1C(=O)[C@@H](N2C(=O)OC[C@@H]2c2ccccc2)[C@H]1/C=C/c1ccccc1 [Example 221AM] |  | 8.57
16 | O=C(NCc1cccc(C(F)(F)F)c1)[C@H](CCC(=O)N1CCN(C2CCCCC2)CC1)N1C(=O)[C@@H](N2C(=O)OC[C@@H]2c2ccccc2)[C@H]1/C(Cl)=C/c1ccccc1 [Example 226] | 0.49 | 9.52
17 | O=C(N[C@@H]1CCc2ccccc21)[C@H](CCC(=O)N1CCN(C2CCCCC2)CC1)N1C(=O)[C@@H](N2C(=O)OC[C@@H]2c2ccccc2)[C@H]1/C=C/c1ccccc1 [Example 221S] | 5.03 | 8.51
18 | O=C(NCc1cc(F)cc(F)c1)[C@H](CCC(=O)N1CCN(C2CCCCC2)CC1)N1C(=O)[C@@H](N2C(=O)OC[C@@H]2c2ccccc2)[C@H]1/C=C/c1ccccc1 [Example 185] | 1.27 | 

Row | SMILES | IC50 [nM] | pKi
19 | O=C(NC1(c2ccccc2)CCCC1)[C@H](CC(=O)N1CCC(N2CCCCC2)CC1)N1C(=O)[C@@H](N2C(=O)OC[C@@H]2c2ccccc2)[C@H]1/C=C/c1ccccc1 [Example 132D] | 6.3 | 8.41
20 | CCN1CCN(C(=O)CC[C@@H](C(=O)NCc2cccc(C(F)(F)F)c2)N2C(=O)[C@@H](N3C(=O)OC[C@@H]3c3ccccc3)[C@H]2/C(Cl)=C/c2ccccc2)CC1 [Example 228] | 13.6 | 8.08
21 | O=C(NC1(c2ccccc2)CCCC1)[C@H](CCC(=O)N1CCN(C2CCCCC2)CC1)N1C(=O)[C@@H](N2C(=O)OC[C@@H]2c2ccccc2)[C@H]1/C=C/c1ccccc1 [Example 217] | 3.17 | 8.71
22 | CC(C)N1CCN(C(=O)CCC(C(=O)NCc2cccc(C(F)(F)F)c2)N2C(=O)C(N3C(=O)OCC3c3ccccc3)C2C=Cc2ccccc2)CC1 (single isomer, unassigned) [Example 104] |  | 8.95
23 | O=C(NCc1ccccc1C(F)(F)F)[C@H](CCC(=O)N1CCN(C2CCCCC2)CC1)N1C(=O)[C@@H](N2C(=O)OC[C@@H]2c2ccccc2)[C@H]1/C=C/c1ccccc1 [Example 182] | 1.52 | 
24 | O=C([C@@H](COCc1ccccc1)N1C(=O)[C@@H](N2C(=O)OC[C@@H]2c2ccccc2)[C@H]1/C=C/c1ccccc1)N1CCC(N2CCCCC2)CC1 [Example 232] | 1.37 | 9.08
25 | Cc1ccc(C2(NC(=O)[C@H](CCC(=O)N3CCN(C4CCCCC4)CC3)N3C(=O)[C@@H](N4C(=O)OC[C@@H]4c4ccccc4)[C@H]3/C=C/c3ccccc3)CCCC2)cc1 [Example 221AS] | ~20 | 
26 | O=C(N[C@@H]1CCCc2ccccc21)[C@H](CCC(=O)N1CCC[C@H]1CN1CCCC1)N1C(=O)[C@@H](N2C(=O)OC[C@@H]2c2ccccc2)[C@H]1/C=C/c1ccccc1 [Example 221Y] | 7.6 | 8.33
27 | O=C(NCc1ccc(Cl)c(Cl)c1)[C@H](CCC(=O)N1CCN(C2CCCCC2)CC1)N1C(=O)[C@@H](N2C(=O)OC[C@@H]2c2ccccc2)[C@H]1/C=C/c1ccccc1 [Example 173] | < 100 | 
28 | COc1cc(OC)cc(C(C)(C)NC(=O)[C@H](CCC(=O)N2CCN(C3CCCCC3)CC2)N2C(=O)[C@@H](N3C(=O)OC[C@@H]3c3ccccc3)[C@H]2/C=C/c2ccccc2)c1 [Example 218] | 7.7 | 8.33
29 | COc1cc(CNC(=O)[C@H](CCC(=O)N2CCN(C3CCCCC3)CC2)N2C(=O)[C@@H](N3C(=O)OC[C@@H]3c3ccccc3)[C@H]2/C=C/c2ccccc2)cc(OC)c1 [Example 201] | 10.5 | 8.19
30 | CCCCN1CCN(C(=O)CC[C@H](C(=O)NCc2cccc(C(F)(F)F)c2)N2C(=O)[C@@H](N3C(=O)OC[C@@H]3c3ccccc3)[C@H]2/C=C/c2ccccc2)CC1 [Example 137] |  | 7.98
31 | CCCCN1CCN(C(=O)C(C(=O)NCc2cccc(C(F)(F)F)c2)N2C(=O)[C@@H](N3C(=O)OC[C@@H]3c3ccccc3)[C@H]2/C=C/c2ccccc2)CC1 (mixture of isomers) [Example 40] |  | 8.19
32 | O=C(NCc1cccc(OC(F)(F)F)c1)[C@H](CCC(=O)N1CCN(C2CCCCC2)CC1)N1C(=O)[C@@H](N2C(=O)OC[C@@H]2c2ccccc2)[C@H]1/C=C/c1ccccc1 [Example 172] | 4.5 | 8.56
33 | O=C(NCc1cccnc1)[C@H](CCC(=O)N1CCN(C2CCCCC2)CC1)N1C(=O)[C@@H](N2C(=O)OC[C@@H]2c2ccccc2)[C@H]1/C=C/c1ccccc1 [Example 209] | 16 | 8.01
34 | O=C(NCc1ccc(F)c(C(F)(F)F)c1)[C@H](CCC(=O)N1CCN(C2CCCCC2)CC1)N1C(=O)[C@@H](N2C(=O)OC[C@@H]2c2ccccc2)[C@H]1/C=C/c1ccccc1 [Example 178] | < 50 | 
35 | O=C(C[C@@H](C(=O)NCc1cccc(C(F)(F)F)c1)N1C(=O)[C@@H](N2C(=O)OC[C@@H]2c2ccccc2)[C@H]1CCc1ccccc1)NC1CCN(Cc2ccccc2)CC1 [Example 235, 2(S)-[[(1-Benzylpiperidin-4-yl)amino]carbonylmethyl]-2-[3(S)-(4(S)-phenyloxazolidin-2-on-3-yl)-4(R)-(2-phenyleth-1-yl)azetidin-2-on-1-yl]acetic acid N-(3-trifluoromethylbenzyl)amide] | 37 | 7.64
36 | O=C(NC1Cc2ccccc2C1)[C@H](CCC(=O)N1CCN(C2CCCCC2)CC1)N1C(=O)[C@@H](N2C(=O)OC[C@@H]2c2ccccc2)[C@H]1/C=C/c1ccccc1 [Example 221P] | 1.7 | 8.96
